Results taken from patent US9586958B2, “Prodrug derivatives of substituted triazolopyridines” (BAYER PHARMA AKTIENGESELLSCHAFT, priority 2013, dated 2017).
Structures can show the parent of a compound that is named as a salt.

Experiments:
[1] = Stability in buffer at pH 7.4 (HPLC); format: physicochemical; settings: buffer pH 7.4, 37° C.
Experimental: 0.3 mg of the test compound are solved in 0.1 ml dimethylsulfoxide and 0.4 ml acetonitrile. For complete dissolution the HPLC vial with the sample solution is sonified for about 20 seconds. Then 1.0 ml of the buffer solution is added, and the sample is again treated in the ultrasonic bath.
90 g of sodium chloride, 13.61 g of potassium dihydrogen phosphate and 83.35 g of 1 M sodium hydroxide solution are made up to 1 liter with Millipore water and then diluted 1:10.
10 μl portions of the sample solution are analysed by HPLC to determine the amount of the test compound over a period of 24 hours at 37° C. The peak areas in percentage are used for quantification.
Agilent 1100 with DAD (G1315B), binary pump (G1312A), autosampler (G1329A), column oven (G1316A), thermostat (G1330B); column: Kromasil 100 C18, 250 mm×4 mm, 5 μm; column temperature: 37° C.; eluent A: water+5 ml of perchloric acid/liter, eluent B: acetonitrile.
The ratio of the peak areas (F) at different time points in relation to the peak areas at the starting time are shown in Table 2 for representative examples: […]

[2] = In vitro stability in rat plasma (HPLC detection); format: in vitro ADME; settings: 37° C.
Experimental: 1 mg of test compound is dissolved in 1.25 ml dimethylsulfoxide. Then 1.25 ml water are added. 0.5 ml of this sample solution are mixed with 0.5 ml heparinized and 37° C. warm plasma (wistar rat plasma or human plasma). A first sample (10 μl) is immediately taken for HPLC analysis. In the period up to 4 h after the start of incubation further 10 μl aliquots are taken after 30, 60, 90, 120 and 240 minutes and the amount of the test compound is determined.
Agilent 1100 with DAD (G1315A), binary pump (G1312A), autosampler (G1329A), column oven (G1316A), thermostat (G1330B); column: Kromasil 100 C18, 250 mm×4 mm, 5 μm; column temperature: 45° C.; eluent A: water+5 ml of perchloric acid/liter, eluent B: acetonitrile.

% Test Compound after 24 h [F(t = 24 h) × 100/F(t = 0 h)] [1] [%]	% Test Compound after 4 h [F(t = 24 h) × 100/F(t = 0 h)] [2] [%]	% Test Compound after 4 h [F(t = 24 h) × 100/F(t = 0 h)] ([2]; hydrochloride) [%]	% Test Compound after 24 h [F(t = 24 h) × 100/F(t = 0 h)] ([1]; measured for formic acid salt)	SMILES
0.0	5	–	–	COc1cc(S(C)(=O)=O)ccc1N(C(=O)OC(C)OC(=O)[C@@H](NC(=O)[C@@H](N)CCCCN)C(C)C)c1nc2ccc(-c3ccc(NC(=O)[C@H](C)c4ccc(F)cc4)cc3)cn2n1.Cl.Cl (mixture of isomers) [Example 2.2, (1RS)-1-({[6-(4-{[(2R)-2-(4-fluorophenyl)propanoyl]amino}phenyl)[1,2,4]triazolo[1,5-α]pyridin-2-yl][2-methoxy-4-(methylsulfonyl)phenyl]carbamoyl}oxy)ethyl L-lysyl-L-valinate dihydrochloride]
48	45	–	–	COc1cc(S(C)(=O)=O)ccc1N(C(=O)OC(C)OC(=O)[C@@H](NC(=O)[C@@H](N)C(C)C)C(C)C)c1nc2ccc(-c3ccc(NC(=O)[C@H](C)c4ccc(F)cc4)cc3)cn2n1.Cl (mixture of isomers) [Example 2.4, (1RS)-1-({[6-(4-{[(2R)-2-(4-fluorophenyl)propanoyl]amino}phenyl)[1,2,4]triazolo[1,5-α]pyridin-2-yl][2-methoxy-4-(methylsulfonyl)phenyl]carbamoyl}oxy)ethyl L-valyl-L-valinate hydrochloride]
0.0	0.0	–	–	COc1cc(S(C)(=O)=O)ccc1N(C(=O)OC(C)OC(=O)[C@@H](N)C(C)C)c1nc2ccc(-c3ccc(NC(=O)[C@H](C)c4ccc(F)cc4)cc3)cn2n1.Cl (mixture of isomers) [Example 3.1, (1RS)-1-({[6-(4-{[(2R)-2-(4-fluorophenyl)propanoyl]amino}phenyl)[1,2,4]triazolo[1,5-α]pyridin-2-yl][2-methoxy-4-(methylsulfonyl)phenyl]carbamoyl}oxy)ethyl L-valinate hydrochloride]
0.0	0.0	–	–	COc1cc(S(C)(=O)=O)ccc1N(C(=O)OC(C)OC(=O)[C@@H](N)C(C)(C)C)c1nc2ccc(-c3ccc(NC(=O)[C@H](C)c4ccc(F)cc4)cc3)cn2n1.Cl (mixture of isomers) [Example 3.2, (1RS)-1-({[6-(4-{[(2R)-2-(4-fluorophenyl)propanoyl]amino}phenyl)[1,2,4]triazolo[1,5-α]pyridin-2-yl][2-methoxy-4-(methylsulfonyl)phenyl]carbamoyl}oxy)ethyl 3-methyl-L-valinate hydrochloride]
21	19	–	–	COc1cc(S(C)(=O)=O)ccc1N(C(=O)OC(OC(=O)[C@@H](N)C(C)(C)C)C(C)C)c1nc2ccc(-c3ccc(NC(=O)[C@H](C)c4ccc(F)cc4)cc3)cn2n1.Cl (mixture of isomers) [Example 5.1, (1RS)-1-({[6-(4-{[(2R)-2-(4-fluorophenyl)propanoyl]amino}phenyl)[1,2,4]triazolo[1,5-α]pyridin-2-yl][2-methoxy-4-(methylsulfonyl)phenyl]carbamoyl}oxy)-2-methylpropyl 3-methyl-L-valinate hydrochloride]
17	44	–	–	COc1cc(S(C)(=O)=O)ccc1N(C(=O)OC(OC(=O)[C@@H](N)C(C)C)C(C)C)c1nc2ccc(-c3ccc(NC(=O)[C@H](C)c4ccc(F)cc4)cc3)cn2n1.Cl (mixture of isomers) [Example 5.4, (1RS)-1-({[6-(4-{[(2R)-2-(4-fluorophenyl)propanoyl]amino}phenyl)[1,2,4]triazolo[1,5-α]pyridin-2-yl][2-methoxy-4-(methylsulfonyl)phenyl]carbamoyl}oxy)-2-methylpropyl-L-valinate hydrochloride]
0.0	–	22	–	COc1cc(S(C)(=O)=O)ccc1N(C(=O)OC(C)OC(=O)[C@@H](N)C(C)(C)C)c1nc2ccc(-c3ccc(NC(=O)[C@H](C)c4ccc(F)cc4)cc3)cn2n1.Cl (single isomer, unassigned) [Example 3.3, (1R or 1S)-1-({[6-(4-{[(2R)-2-(4-fluorophenyl)propanoyl]amino}phenyl)[1,2,4]triazolo[1,5-α]pyridin-2-yl][2-methoxy-4-(methylsulfonyl)phenyl]carbamoyl}oxy)ethyl-3-methyl-L-valinate hydrochloride]
0.0	–	29	–	COc1cc(S(C)(=O)=O)ccc1N(C(=O)OC(C)OC(=O)[C@@H](N)C(C)(C)C)c1nc2ccc(-c3ccc(NC(=O)[C@H](C)c4ccc(F)cc4)cc3)cn2n1.Cl (single isomer, unassigned) [Example 3.4, (1S or 1R)-1-({[6-(4-{[(2R)-2-(4-fluorophenyl)propanoyl]amino}phenyl)[1,2,4]triazolo[1,5-α]pyridin-2-yl][2-methoxy-4-(methylsulfonyl)phenyl]carbamoyl}oxy)ethyl-3-methyl-L-valinate hydrochloride]
0.0	–	–	–	CC[C@H](C)[C@H](N)C(=O)OC(C)OC(=O)N(c1nc2n(n1)CC(c1ccc(NC(=O)[C@H](C)c3ccc(F)cc3)cc1)C=C2)c1ccc(S(C)(=O)=O)cc1OC.Cl (single isomer, unassigned) [Example 3.6, (1S or 1R)-1-({[6-(4-{[(2R)-2-(4-fluorophenyl)propanoyl]amino}phenyl)[1,2,4]triazolo[1,5-α]pyridin-2-yl][2-methoxy-4-(methylsulfonyl)phenyl]carbamoyl}oxy)ethyl-isoleucinate hydrochloride]
0.0	–	–	–	CC[C@H](C)[C@H](N)C(=O)OC(C)OC(=O)N(c1nc2ccc(-c3ccc(NC(=O)[C@H](C)c4ccc(F)cc4)cc3)cn2n1)c1ccc(S(C)(=O)=O)cc1OC.Cl (single isomer, unassigned) [Example 3.7, (1R or 1S)-1-({[6-(4-{[(2R)-2-(4-fluorophenyl)propanoyl]amino}phenyl)[1,2,4]triazolo[1,5-α]pyridin-2-yl][2-methoxy-4-(methylsulfonyl)phenyl]carbamoyl}oxy)ethyl-L-isoleucinate hydrochloride]
48	44	–	–	COc1cc(S(C)(=O)=O)ccc1N(C(=O)OC(OC(=O)[C@@H](N)C(C)C)C(C)C)c1nc2ccc(-c3ccc(NC(=O)[C@H](C)c4ccc(F)cc4)cc3)cn2n1 (single isomer, unassigned) [Example 5.2, (1R or S)-1-({[6-(4-{[(2R)-2-(4-fluorophenyl)propanoyl]amino}phenyl)[1,2,4]triazolo[1,5-α]pyridin-2-yl][2-methoxy-4-(methylsulfonyl)phenyl]carbamoyl}oxy)-2-methylpropyl-L-valinate hydrochloride]
–	–	–	35.0 *) %	COc1cc(S(C)(=O)=O)ccc1N(C(=O)OCOC(=O)C1CCNCC1)c1nc2ccc(-c3ccc(NC(=O)[C@H](C)c4ccc(F)cc4)cc3)cn2n1.O=C(O)C(F)(F)F [Example 1.1, ({[6-(4-{[(2R)-2-(4-fluorophenyl)propanoyl]amino}phenyl)[1,2,4]triazolo[1,5-α]pyridin-2-yl][2-methoxy-4-(methylsulfonyl)phenyl]carbamoyl}oxy)methyl piperidine-4-carboxylate trifluoroacetate]
